Columns and labels:
MOZ-KAT6A = MOZ-KAT6A (Homo sapiens, UniProt Q92794, A567V); assay: Acetyltransferase biochemical assay (AlphaScreen), KAT6A
HBO-KAT7 = HBO-KAT7 (Homo sapiens, UniProt O95251); assay: Acetyltransferase biochemical assay (AlphaScreen), KAT7
TIP60-KAT5 = TIP60-KAT5 (Homo sapiens, UniProt Q92993); assay: Acetyltransferase biochemical assay (AlphaScreen), KAT5
Sequence of TIP60-KAT5 (Q92993 with tags, fused parts or gaps isoform Q92993-2): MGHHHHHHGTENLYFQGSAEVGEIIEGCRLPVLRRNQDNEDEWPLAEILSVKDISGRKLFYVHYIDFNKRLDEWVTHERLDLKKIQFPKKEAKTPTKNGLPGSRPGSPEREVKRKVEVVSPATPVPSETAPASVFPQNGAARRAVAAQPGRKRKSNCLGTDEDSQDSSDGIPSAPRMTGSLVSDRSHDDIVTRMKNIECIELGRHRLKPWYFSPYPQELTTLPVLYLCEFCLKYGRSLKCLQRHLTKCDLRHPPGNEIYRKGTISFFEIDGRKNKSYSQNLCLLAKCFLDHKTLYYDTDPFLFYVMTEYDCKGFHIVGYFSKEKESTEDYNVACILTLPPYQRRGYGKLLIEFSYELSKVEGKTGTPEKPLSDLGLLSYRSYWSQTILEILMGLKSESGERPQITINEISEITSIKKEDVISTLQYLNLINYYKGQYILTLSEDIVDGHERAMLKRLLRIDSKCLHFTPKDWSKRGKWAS

Sequence of MOZ-KAT6A (Q92794 with tags, fused parts or gaps A567V): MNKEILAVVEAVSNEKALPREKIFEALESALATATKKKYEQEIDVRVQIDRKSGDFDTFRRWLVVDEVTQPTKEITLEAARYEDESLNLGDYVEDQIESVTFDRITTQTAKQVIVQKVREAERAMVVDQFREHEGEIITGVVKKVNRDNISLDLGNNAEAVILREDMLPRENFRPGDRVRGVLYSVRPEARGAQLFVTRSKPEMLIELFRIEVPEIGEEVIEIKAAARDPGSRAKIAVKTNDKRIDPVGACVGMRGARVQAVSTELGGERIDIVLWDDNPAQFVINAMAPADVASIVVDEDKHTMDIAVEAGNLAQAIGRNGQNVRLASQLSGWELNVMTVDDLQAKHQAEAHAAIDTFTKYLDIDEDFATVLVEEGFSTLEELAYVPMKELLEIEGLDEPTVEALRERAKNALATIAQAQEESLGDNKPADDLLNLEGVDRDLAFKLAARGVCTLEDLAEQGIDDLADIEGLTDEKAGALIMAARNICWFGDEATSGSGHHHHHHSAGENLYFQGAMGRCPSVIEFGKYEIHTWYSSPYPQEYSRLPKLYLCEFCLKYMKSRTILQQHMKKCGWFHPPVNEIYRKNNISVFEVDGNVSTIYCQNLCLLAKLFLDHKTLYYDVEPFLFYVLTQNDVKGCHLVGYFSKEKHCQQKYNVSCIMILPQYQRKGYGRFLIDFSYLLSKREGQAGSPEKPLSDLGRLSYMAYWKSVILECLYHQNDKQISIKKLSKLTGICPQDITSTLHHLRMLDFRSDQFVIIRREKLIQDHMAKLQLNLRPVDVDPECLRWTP
Sequence of HBO-KAT7 (O95251 with tags, fused parts or gaps): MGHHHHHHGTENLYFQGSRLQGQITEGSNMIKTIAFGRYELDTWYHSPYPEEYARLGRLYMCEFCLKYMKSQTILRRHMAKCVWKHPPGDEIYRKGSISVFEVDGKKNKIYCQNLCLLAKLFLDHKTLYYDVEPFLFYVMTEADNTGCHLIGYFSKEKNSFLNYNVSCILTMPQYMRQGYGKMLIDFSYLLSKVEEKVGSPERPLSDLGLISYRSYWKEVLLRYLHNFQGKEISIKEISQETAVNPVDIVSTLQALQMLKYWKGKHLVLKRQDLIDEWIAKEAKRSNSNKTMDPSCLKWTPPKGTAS

IC50 (MOZ-KAT6A) [µM]	IC50 (HBO-KAT7) [µM]	IC50 (TIP60-KAT5) [µM]	SMILES
48.1	109	> 125	CCc1ccc(OC)c(S(=O)(=O)Nc2noc3ccc(C(=O)NC)cc23)c1 [Example 230, 3-((5-Ethyl-2-methoxyphenyl)sulfonamido)-N-methylbenzo[d]isoxazole-5-carboxamide]
18.9	54.4	111	CCc1ccc(OC)c(S(=O)(=O)Nc2noc3cccc(-c4cnn(C)c4)c23)c1 [Example 202, 5-Ethyl-2-methoxy-N-(4-(1-methyl-1H-pyrazol-4-yl)benzo[d]isoxazol-3-yl)benzenesulfonamide]
3.3	1.16	32.2	COc1cccc(OC)c1S(=O)(=O)Nc1noc2c(-c3ccccc3)ccc(OC)c12 [Example 142, 2,6-Dimethoxy-N-(4-methoxy-7-phenylbenzo[d]isoxazol-3-yl)benzenesulfonamide]
3.62	31.1	> 125	CCc1ccc(OC)c(S(=O)(=O)Nc2noc3ccc(Cn4cccn4)cc23)c1 [Example 225]
5.66	22	65.3	CCc1ccc(OC)c(S(=O)(=O)Nc2noc3c(C)cccc23)c1 [Example 187, 5-Ethyl-2-methoxy-N-(7-methylbenzo[d]isoxazol-3-yl)benzenesulfonamide]
0.395	0.82	9.04	CCc1ccc(OC)c(S(=O)(=O)Nc2noc3ccc(CC)cc23)c1 [Example 235]
3.9	2.76	57.6	COc1cccc(OC)c1S(=O)(=O)Nc1noc2cc(-c3ccncc3)cc(OC)c12 [Example 245, 2,6-Dimethoxy-N-(4-methoxy-6-(pyridin-4-yl)benzo[d]isoxazol-3-yl)benzenesulfonamide]
36.2	74.4	> 125	COc1ccc(OC)c(S(=O)(=O)Nc2noc3ccccc23)c1 [Example 46, N-(benzo[d]isoxazol-3-yl)-2,5-dimethoxybenzene-sulfonamide]
0.676	0.478	27.1	COc1cccc(OC)c1S(=O)(=O)Nc1noc2cc(-c3cccnc3)cc(OC)c12 [Example 246, 2,6-Dimethoxy-N-(4-methoxy-6-(pyridin-3-yl)benzo[d]isoxazol-3-yl)benzenesulfonamide]
0.772	1.32	18.5	CCc1ccc(OC)c(S(=O)(=O)Nc2noc3cccc(Br)c23)c1 [Example 129]
62.6	44.9	> 125	COc1ccccc1S(=O)(=O)Nc1noc2cc(Cl)ccc12 [Example 158]
71.5	32.1	> 125	Cc1ccc(S(=O)(=O)Nc2noc3cccc(Cl)c23)cc1 [Example 27, N-(4-chlorobenzo [d]isoxazol-3-yl)-4-methylbenzenesulfonamide]
2.13	1.11	30.2	COc1cccc(OC)c1S(=O)(=O)Nc1noc2cc(C)cc(OC)c12 [Example 244, 2,6-Dimethoxy-N-(4-methoxy-6-methylbenzo[d]isoxazol-3-yl)benzenesulfonamide]
85	115	> 125	CCc1ccc(OC)c(S(=O)(=O)Nc2noc3ccc(CO)cc23)c1 [Example 229]
105	60.7	> 125	CCc1ccc(OC)c(S(=O)(=O)Nc2noc3c(C(=O)N(C)C)cccc23)c1 [Example 185, 3-(5-Ethyl-2-methoxyphenylsulfonamido)-N,N-dimethylbenzo[d]isoxazole-7-carboxamide]
5.21	6.3	38.9	CC(C)c1ccc(S(=O)(=O)Nc2noc3cccc(Cl)c23)cc1 [Example 22, N-(4-chlorobenzo [d]isoxazol-3-yl)-4-isopropylbenzene sulfonamide]
0.775	0.914	4.84	COc1cc2c(cc1S(=O)(=O)Nc1noc3ccc(Br)cc13)CCCC2 [Example 113, N-(5-bromobenzo[d]isoxazol-3-yl)-3-methoxy-5,6,7,8-tetrahydronaphthalene-2-sulfonamide]
3.48	5.9	96.6	COc1ccc(-c2cc(OC)c3c(NS(=O)(=O)c4c(OC)cccc4OC)noc3c2)cn1 [Example 247, 2,6-Dimethoxy-N-(4-methoxy-6-(6-methoxypyridin-3-yl)benzo[d]isoxazol-3-yl)benzenesulfonamide]
29	95.5	23.7	COC(=O)c1ccc(Cl)cc1S(=O)(=O)Nc1noc2cccc(Cl)c12 [Example 115, Methyl 4-chloro-2-(N-(4-chlorobenzo[d]isoxazol-3-yl)sulfamoyl)benzoate]
2.96	21.7	> 125	CCc1ccc(OC)c(S(=O)(=O)Nc2noc3cc(-n4nccn4)ccc23)c1 [Example 130]

IC50 (MOZ-KAT6A) [µM]	IC50 (HBO-KAT7) [µM]	IC50 (TIP60-KAT5) [µM]	SMILES
0.709	0.632	14.9	CCc1ccc(OC)c(S(=O)(=O)Nc2noc3cccc(CC)c23)c1 [Example 199]
3.8	32.8	98.2	COc1ccc(C(F)(F)F)c(OC)c1S(=O)(=O)Nc1noc2cccc(OC)c12 [Example 101, 2,6-Dimethoxy-N-(4-methoxybenzo[d]isoxazol-3-yl)-3-(trifluoromethyl)benzenesulfonamide]
85.4	> 125	> 125	O=S(=O)(Nc1noc2cccc(Cl)c12)c1ccc(F)c(F)c1F [Example 117, N-(4-Chlorobenzo[d]isoxazol-3-yl)-2,3,4-trifluorobenzenesulfonamide]
12	94.2	> 125	CCc1ccc(OC)c(S(=O)(=O)Nc2noc3ccc(-c4cncnc4)cc23)c1 [Example 238, 5-Ethyl-2-methoxy-N-(5-(pyrimidin-5-yl)benzo[d]isoxazol-3-yl)benzenesulfonamide]
46.2	11.4	> 125	COc1cc(C)cc(C)c1S(=O)(=O)Nc1noc2cccc(OC)c12 [Example 72, 2-methoxy-N-(4-methoxybenzo[d]isoxazol-3-yl)-4,6-dimethylbenzene sulfonamide]
9.39	24.2	29.9	CCc1ccc(OC)c(S(=O)(=O)Nc2noc3c(-c4cncnc4)cccc23)c1 [Example 192, 5-Ethyl-2-methoxy-N-(7-(pyrimidin-5-yl)benzo[d]isoxazol-3-yl)benzenesulfonamide]
66.6	37.6	> 125	O=S(=O)(Nc1noc2cccc(Cl)c12)c1cccc2ccncc12 [Example 159, N-(4-chlorobenzo[d]isoxazol-3-yl)isoquinoline-8-sulfonamide]
63.9	63.8	120	Cn1c(=O)oc2cc(S(=O)(=O)Nc3noc4cccc(Cl)c34)ccc21 [Example 13, N-(4-chlorobenzo [d]isoxazol-3-yl)-3-methyl-2-oxo-2,3-dihydrobenzo[d]oxazole-6-sulfonamide]
27.5	6.7	80.1	O=S(=O)(Nc1noc2cccc(Cl)c12)c1ccccc1OC(F)F [Example 38, N-(4-chlorobenzo [d]isoxazol-3-yl)-2-(difluoromethoxy) benzenesulfonamide]
36.1	53.6	> 125	Cc1ccc(S(=O)(=O)Nc2noc3cccc(Cl)c23)cc1Cl [Example 31, 3-chloro-N-(4-chlorobenzo[d]isoxazol-3-yl)-4-methylbenzenesulfonamide]
85.3	> 125	> 125	CCc1cccc(S(=O)(=O)Nc2noc3ccccc23)c1 [Example 52, N-(benzo[d]isoxazol-3-yl)-3-ethylbenzene sulfonamide]
11.8	14.6	27.7	O=S(=O)(Nc1noc2cccc(Cl)c12)c1ccc(Oc2ccc(F)cc2)cc1 [Example 17, N-(4-chlorobenzo[d]isoxazol-3-yl)-4-(4-fluorophenoxy) benzenesulfonamide]
26.7	106	> 125	O=S(=O)(Nc1noc2ccccc12)c1ccc2c(c1)CCC2 [Example 64, N-(benzo[d]isoxazol-3-yl)-2,3-dihydro-1H-indene-5-sulfonamide]
0.655	1.42	26.8	COc1cccc(OCc2ccccc2)c1S(=O)(=O)Nc1noc2cccc(OC)c12 [Example 222, 2-(Benzyloxy)-6-methoxy-N-(4-methoxybenzo[d]isoxazol-3-yl)benzenesulfonamide]
72.8	> 125	> 125	CCc1ccc(CC)c(S(=O)(=O)Nc2noc3ccccc23)c1 [Example 56, N-(benzo[d]isoxazol-3-yl)-2,5-diethylbenzene sulfonamide]
9.95	17.9	> 125	CCc1ccc(OC)c(S(=O)(=O)Nc2noc3ccc(C#N)cc23)c1 [Example 233]
9.44	1.76	25.5	O=S(=O)(Nc1noc2cccc(Cl)c12)c1cccc2c1OCC2 [Example 180, N-(4-Chlorobenzo[d]isoxazol-3-yl)-2,3-dihydrobenzofuran-7-sulfonamide]
11.6	21.6	28.4	O=S(=O)(Nc1noc2ccccc12)c1ccc(C2CCCCC2)cc1 [Example 71, N-(benzo[d]isoxazol-3-yl)-4-cyclohexyl benzene-sulfonamide]
10.8	38	80.3	CCc1ccc(OC)c(S(=O)(=O)Nc2noc3ccc(CN)cc23)c1 [Example 226]
0.782	3.98	14.3	COc1cc2c(c(OC)c1S(=O)(=O)Nc1noc3cccc(OC)c13)CCC2 [Example 106, 4,6-Dimethoxy-N-(4-methoxybenzo[d]isoxazol-3-yl)-2,3-dihydro-1H-indene-5-sulfonamide]
